# In patent US12371426B2, “Pyridazine derivatives as SMARCA2/4 degraders” (Aurigene Discovery Technologies Limited, priority 2018, dated 2025):
# Key:
# NCI-H929 cells = experiment: Anti proliferative activity in NCI-H929 cell line by Cell Titer Glo assay; format: cell-based; settings: Homo sapiens, 72 h, 3 days compound incubation, CellTiter Glo, read-out: Anti-proliferative activity IC50 group (NCI-H929 cells)
# Method in brief: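 Cells seeded in complete RPMI-1640 and exposed next day to compounds in triplicate (DMSO ≤0.3% final) for 3 days (H929) or 8 days (H838). Viability by CellTiter-Glo ATP luminescence; % inhibition relative to DMSO control, IC50 from dose-response fit.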
# NCI-H838 cells = experiment: Anti proliferative activity in NCI-H838 cell line by Cell Titer Glo assay; format: cell-based; settings: Homo sapiens, 192 h, 8 days compound incubation, CellTiter Glo, read-out: Anti-proliferative activity IC50 group (NCI-H838 cells)
# Method: Determination of Anti Proliferative Activity of Compounds in NCI-H929 and NCI-H838 Cell Lines by Cell Titer Glo® (promega) assay:
# NCI-H929 (ATCC CRL-9068) or NCI-H838 (ATCC CRL-5844) cells were seeded in 96 well plate flat black clear bottom plates (Corning, Cat. No 3904) using complete RPMI-1640 media. Next day, compounds listed in the present invention were added to cells from 10 mM stocks made in DMSO (Sigma Cat no. D2650). Each concentration of compound was tested in triplicate with DMSO concentration at a final percentage not exceeding 0.3 in the cells. After the compound incubation (3 days for H929 and 8 days for H838) assay was terminated using 50 μl of CellTiter Glo® reagent (Promega, Cat. no G7572). CellTiter Glo® Luminescent reagent determines the number of viable cells based on quantitation of ATP present which is an indicator of cell number and metabolic activity. Luminescence readings were taken in Victor-3 instrument. Percent inhibition of proliferation was calculated using formula, % inhibition=100−(luminescence value of test/luminescence value of DMSO control)*100. DMSO control (0%)=Cells in complete media with DMSO; blank=Media alone containing DMSO. IC50 was calculated using graph pad prism software.
# Herein group “A” refers to IC50 value lower than 1 μM, “B” refers to IC50 value between 1-10 μM (both inclusive) and “C” refers to IC50 value higher than 10 μM or less than 50% activity at 10 μM.
# SMARCA2 [1] = target: T1, SMARCA2 (Homo sapiens, UniProt P51531); experiment: SMARCA2 degradation in NCI-H838 cells by Western blot; format: cell-based; design: endogenous in cells; host or cells: NCI-H838 (ATCC CRL-5844); settings: 16 hours
# T1 sequence (P51531 whole entry): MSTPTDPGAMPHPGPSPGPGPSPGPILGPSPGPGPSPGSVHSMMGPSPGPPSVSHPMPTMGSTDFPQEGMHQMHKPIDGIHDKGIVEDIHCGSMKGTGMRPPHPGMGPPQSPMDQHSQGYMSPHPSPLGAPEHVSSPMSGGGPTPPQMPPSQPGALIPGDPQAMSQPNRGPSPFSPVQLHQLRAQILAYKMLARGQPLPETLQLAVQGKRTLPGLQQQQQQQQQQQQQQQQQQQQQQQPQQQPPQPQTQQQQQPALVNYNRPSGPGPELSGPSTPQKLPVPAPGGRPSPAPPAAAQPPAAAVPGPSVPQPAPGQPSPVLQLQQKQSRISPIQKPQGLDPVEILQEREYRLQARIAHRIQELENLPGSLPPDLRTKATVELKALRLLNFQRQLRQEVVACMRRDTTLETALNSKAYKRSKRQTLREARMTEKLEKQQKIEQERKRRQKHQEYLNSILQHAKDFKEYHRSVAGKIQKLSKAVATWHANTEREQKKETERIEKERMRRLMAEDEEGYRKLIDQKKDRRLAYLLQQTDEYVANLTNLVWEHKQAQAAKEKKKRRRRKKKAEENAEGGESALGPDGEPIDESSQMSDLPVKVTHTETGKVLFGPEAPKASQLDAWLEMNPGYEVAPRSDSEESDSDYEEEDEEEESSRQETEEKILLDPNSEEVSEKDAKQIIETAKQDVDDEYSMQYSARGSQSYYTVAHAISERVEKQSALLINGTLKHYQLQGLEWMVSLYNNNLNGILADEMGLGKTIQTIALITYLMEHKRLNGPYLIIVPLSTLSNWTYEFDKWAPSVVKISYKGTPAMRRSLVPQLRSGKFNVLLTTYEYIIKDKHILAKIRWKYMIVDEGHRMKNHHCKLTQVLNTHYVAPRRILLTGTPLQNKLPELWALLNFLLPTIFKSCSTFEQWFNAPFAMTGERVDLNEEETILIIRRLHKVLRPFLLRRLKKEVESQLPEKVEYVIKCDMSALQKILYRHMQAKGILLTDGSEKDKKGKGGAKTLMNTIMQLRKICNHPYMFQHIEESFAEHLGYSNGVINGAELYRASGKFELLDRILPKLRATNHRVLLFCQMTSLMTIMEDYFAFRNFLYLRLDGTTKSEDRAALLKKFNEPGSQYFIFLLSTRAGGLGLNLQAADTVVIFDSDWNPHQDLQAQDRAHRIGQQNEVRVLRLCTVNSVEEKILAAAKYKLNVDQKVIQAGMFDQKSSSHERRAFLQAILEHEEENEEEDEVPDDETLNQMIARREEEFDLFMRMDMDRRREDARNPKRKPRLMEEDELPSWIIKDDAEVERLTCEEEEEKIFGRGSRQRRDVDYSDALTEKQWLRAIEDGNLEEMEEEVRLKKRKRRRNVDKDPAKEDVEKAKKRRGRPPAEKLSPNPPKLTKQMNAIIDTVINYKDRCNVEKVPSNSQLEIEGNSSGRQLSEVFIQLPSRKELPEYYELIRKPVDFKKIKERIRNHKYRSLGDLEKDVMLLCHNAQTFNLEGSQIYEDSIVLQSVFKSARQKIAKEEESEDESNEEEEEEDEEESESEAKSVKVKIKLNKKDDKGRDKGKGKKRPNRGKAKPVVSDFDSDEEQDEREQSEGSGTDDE
# Method: Determination of SMARCA2 Degradation in NCI-1H838 Cells by Western Blot:
# NCI-1H838 (ATCC CRL-5844) was plated in 6 well plates using complete RPMI-1640 media. Next day, compounds of present invention were added to cells from 10 mM stocks made in DMSO (Sigma Cat no. D2650). Each concentration of compound was tested with DMSO concentration not exceeding a final percentage of 0.3 in the cells. Cells were incubated with the compound for 16 hours followed by harvesting with 1× RIPA lysis buffer (Thermo Fischer, catalogue number #89900) containing protease inhibitor cocktail (Sigma catalogue number #P-8340). Equal amount of protein was loaded on SIDS PAGE gel for electrophoresis. Western blot was carried out for detection of SMARCA2 with antibody (Cell signaling technologies, catalogue number #11966). Beta Actin (Santa Cruz, catalogue number #69879) was used as loading control. Percentage of SMARCA2 degradation was calculated using formula % degradation=100−(normalized band intensity in treated sample/normalized band intensity in DMSO sample)*100”.
# Selected compounds of the present invention were screened in the above mentioned assay procedures for determination of % SMARCA2 degradation at 100 nM and the results are summarized in below table 31.
# SMARCA4 = target: T2, SMARCA4 (Homo sapiens, UniProt P51532); experiment: SMARCA4 degradation in H929 cells by Western blot; format: cell-based; settings: 16 hours; for SMARCA4 percent degradation at 0.1 µM: NCI-H929, 100 nM
# T2 construct: endogenous in cells; host or cells: NCI-H929 (ATCC CRL-9068)
# T2 sequence (P51532 whole entry): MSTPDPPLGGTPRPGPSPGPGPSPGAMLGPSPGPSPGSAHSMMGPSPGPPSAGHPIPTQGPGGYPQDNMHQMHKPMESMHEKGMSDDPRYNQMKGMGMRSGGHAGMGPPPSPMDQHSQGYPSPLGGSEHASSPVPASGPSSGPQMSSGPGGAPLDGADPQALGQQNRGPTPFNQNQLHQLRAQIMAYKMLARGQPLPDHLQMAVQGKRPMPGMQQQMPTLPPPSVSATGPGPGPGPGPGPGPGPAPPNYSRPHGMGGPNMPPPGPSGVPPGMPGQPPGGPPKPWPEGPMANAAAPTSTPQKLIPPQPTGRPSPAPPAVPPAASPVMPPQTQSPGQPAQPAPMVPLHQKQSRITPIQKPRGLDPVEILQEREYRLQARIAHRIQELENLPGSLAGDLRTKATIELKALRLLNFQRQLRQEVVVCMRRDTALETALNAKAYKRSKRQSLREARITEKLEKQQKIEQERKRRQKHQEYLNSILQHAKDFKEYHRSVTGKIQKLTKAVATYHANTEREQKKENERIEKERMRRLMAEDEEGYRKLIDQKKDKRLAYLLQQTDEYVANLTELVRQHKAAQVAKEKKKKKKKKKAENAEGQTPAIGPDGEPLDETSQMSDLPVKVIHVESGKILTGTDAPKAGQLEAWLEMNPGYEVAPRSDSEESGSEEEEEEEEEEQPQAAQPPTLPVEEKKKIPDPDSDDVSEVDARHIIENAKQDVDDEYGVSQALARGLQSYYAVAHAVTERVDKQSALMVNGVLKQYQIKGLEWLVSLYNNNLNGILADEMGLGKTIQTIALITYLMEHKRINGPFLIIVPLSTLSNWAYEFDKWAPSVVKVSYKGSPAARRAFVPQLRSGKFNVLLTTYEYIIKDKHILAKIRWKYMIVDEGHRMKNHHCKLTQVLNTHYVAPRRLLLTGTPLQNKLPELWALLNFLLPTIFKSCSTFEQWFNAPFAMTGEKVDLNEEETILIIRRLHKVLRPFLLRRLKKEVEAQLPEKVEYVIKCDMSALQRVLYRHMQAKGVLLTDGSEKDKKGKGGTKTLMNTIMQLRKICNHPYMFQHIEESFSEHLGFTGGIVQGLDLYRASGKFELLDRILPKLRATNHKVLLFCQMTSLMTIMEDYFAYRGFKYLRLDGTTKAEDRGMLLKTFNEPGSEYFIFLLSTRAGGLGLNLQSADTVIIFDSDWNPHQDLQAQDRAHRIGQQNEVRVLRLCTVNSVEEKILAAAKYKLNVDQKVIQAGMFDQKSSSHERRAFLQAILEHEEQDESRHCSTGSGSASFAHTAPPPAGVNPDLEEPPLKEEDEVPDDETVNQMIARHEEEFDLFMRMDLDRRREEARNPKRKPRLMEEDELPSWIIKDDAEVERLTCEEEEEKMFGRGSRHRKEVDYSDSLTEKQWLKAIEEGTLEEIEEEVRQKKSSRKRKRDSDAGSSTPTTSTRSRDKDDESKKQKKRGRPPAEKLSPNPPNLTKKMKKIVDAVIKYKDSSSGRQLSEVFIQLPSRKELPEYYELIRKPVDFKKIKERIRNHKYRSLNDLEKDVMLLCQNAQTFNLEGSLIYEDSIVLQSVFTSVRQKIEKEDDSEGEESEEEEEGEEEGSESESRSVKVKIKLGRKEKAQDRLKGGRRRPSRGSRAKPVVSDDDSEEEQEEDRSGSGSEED
# Method: (§1) Determination of SMARCA2 and SMARCA4 Degradation in H929 Cells by Western Blot:
# (§2) NCI-H929 (ATCC CRL-9068) was plated in 6 well plates using complete RPMI-1640 media. Next day, compounds of present invention were added to cells from 10 mM stocks made in DMSO (Sigma Cat no. D2650). Each concentration of compound was tested with DMSO not exceeding final percentage of 0.3 in the cells. Cells were incubated with the compound for 16 hours followed by harvesting with 1× RIPA lysis buffer (Thermo Fischer, catalogue number #89900) containing protease inhibitor cocktail (Sigma catalogue number #P-8340). Equal amount of protein was loaded on SDS PAGE gel for electrophoresis. Western blot was carried out for detection of either SMARCA2 (Cell signaling technologies, catalogue number #11966) or SMARCA4 antibody (Cell signaling technologies, catalogue number #49360). Beta Actin (Santa Cruz, catalogue number #69879) was used as loading control. Percentage of SMARCA2 or SMARCA4 degradation was calculated using formula % Degradation=100−(normalized band intensity in treated sample/normalized band intensity in DMSO sample)*100.
# (§3) Selected compounds of the present invention were screened in the above mentioned assay procedures for determination of % SMARCA2 and SMARCA4 degradation 100 nM and the results are summarized in below table 30.
# SMARCA2 [2] = target: T1, SMARCA2; experiment: SMARCA2 degradation in H929 cells by Western blot; format: cell-based; design: endogenous in cells; settings: 16 hours
# Method: as §1, §2, §3
# [3] = tested on: SMARCA4-deficient cancer cell lines; settings: SMARCA2/4 bromodomain inhibitor; Cancer Res. 2015; cited from earlier work
IC50 (NCI-H929 cells),IC50 (NCI-H838 cells),SMARCA2 @ 100 nM (% SMARCA2 degradation) (SMARCA2 [1]),SMARCA4 percent degradation at 0.1 µM (SMARCA4),SMARCA2 Percent degradation @ 100 nM (SMARCA2 [2]),SMARCA4 Percent degradation @ 100 nM (SMARCA4),SMILES,antiproliferative phenotype [3]
< 1 µM,< 1 µM,34%,–,–,–,Cc1ncsc1-c1ccc([C@H](C)NC(=O)[C@@H]2C[C@@H](O)CN2C(=O)[C@@H](NC(=O)CN2CCC(c3cc(-c4ccccc4O)nnc3N)CC2)C(C)(C)C)cc1 [Compound 81],–
–,< 1 µM,82%,–,–,–,Cc1cccc(-c2cc(N3CCN(CC(=O)N[C@H](C(=O)N4C[C@H](O)C[C@H]4C(=O)N[C@@H](C)c4ccc(-c5scnc5C)cc4)C(C)(C)C)CC3)c(N)nn2)c1O [Compound 91],–
–,< 1 µM,71%,100%,100%,–,"Cc1ncsc1-c1ccc([C@H](C)NC(=O)[C@@H]2C[C@@H](O)CN2C(=O)[C@@H](NC(=O)C(C)N2CCN(c3cc(-c4ccccc4O)nnc3N)CC2)C(C)(C)C)cc1 (single isomer, unassigned) [Compound 58]",–
< 1 µM,< 1 µM,75%,100%,99%,–,Cc1ncsc1-c1ccc([C@H](C)NC(=O)[C@@H]2C[C@@H](O)CN2C(=O)[C@@H](NC(=O)CC2CCN(c3cc(-c4cc(F)ccc4O)nnc3N)CC2)C(C)(C)C)cc1 [Compound 99],–
< 1 µM,< 1 µM,99%,99%,–,–,"Cc1ncsc1-c1ccc([C@H](C)NC(=O)[C@@H]2C[C@@H](O)CN2C(=O)[C@@H](NC(=O)CC2CCN(c3cc(-c4ccccc4O)nnc3N)CC2)C(C)(C)C)cc1 [Compound 51, (2S,4R)-1-((S)-2-(2-(1-(3-amino-6-(2-hydroxyphenyl)pyridazin-4-yl)piperidin-4-yl)acetamido)-3,3-dimethylbutanoyl)-4-hydroxy-N—((S)-1-(4-(4-methylthiazol-5-yl)phenyl)ethyl)pyrrolidine-2-carboxamide]",–
–,< 1 µM,7%,–,100%,–,"Cc1ncsc1-c1ccc([C@H](C)NC(=O)[C@@H]2C[C@@H](O)CN2C(=O)[C@@H](NC(=O)C(C)C2CCN(c3cc(-c4cccc(F)c4O)nnc3N)CC2)C(C)(C)C)cc1 (single isomer, unassigned) [Compound 83]",–
–,–,–,–,–,–,O=C(/C=C/N1C[C@H]2C[C@@H]1CN2c1ccccn1)c1ccccc1O [PFI-3],fails to display an antiproliferative phenotype
< 1 µM,< 1 µM,61%,–,–,–,Cc1ncsc1-c1ccc([C@H](C)NC(=O)[C@@H]2C[C@@H](O)CN2C(=O)[C@@H](NC(=O)CN2CC=C(c3cc(-c4ccccc4O)nnc3N)CC2)C(C)(C)C)cc1 [Compound 82],–
< 1 µM,< 1 µM,97%,–,100%,100%,Cc1ncsc1-c1ccc([C@H](C)NC(=O)[C@@H]2C[C@@H](O)CN2C(=O)[C@@H](NC(=O)CN2CCN(c3cc(-c4ccccc4O)nnc3N)CC2)C(C)(C)C)cc1 [Compound 43],–
< 1 µM,< 1 µM,85%,101%,100%,–,Cc1ncsc1-c1ccc([C@H](C)NC(=O)[C@@H]2C[C@@H](O)CN2C(=O)[C@@H](NC(=O)CN2CCN(c3cc(-c4cccc(F)c4O)nnc3N)CC2)C(C)(C)C)cc1 [Compound 90],–
–,< 1 µM,76%,–,–,–,Cc1ncsc1-c1ccc([C@H](C)NC(=O)[C@@H]2C[C@@H](O)CN2C(=O)[C@@H](NC(=O)CN2CCN(c3cc(-c4c(O)ccc(F)c4F)nnc3N)CC2)C(C)(C)C)cc1 [Compound 96],–
–,< 1 µM,64%,–,–,–,Cc1ncsc1-c1ccc([C@H](C)NC(=O)[C@@H]2C[C@@H](O)CN2C(=O)[C@@H](NC(=O)C=C2CCN(c3cc(-c4ccccc4O)nnc3N)CC2)C(C)(C)C)cc1 [Compound 103],–
–,< 1 µM,94%,–,–,–,"Cc1ncsc1-c1ccc([C@H](C)NC(=O)[C@@H]2C[C@@H](O)CN2C(=O)[C@@H](NC(=O)CN2CCN(c3cc(-c4cc(F)ccc4O)nnc3N)CC2)C(C)(C)C)cc1 [Compound 63, (2S,4R)-1-((S)-2-(2-(4-(3-amino-6-(5-fluoro-2-hydroxyphenyl)pyridazin-4-yl)piperazin-1-yl)acetamido)-3,3-dimethylbutanoyl)-4-hydroxy-N—((S)-1-(4-(4-methylthiazol-5-yl)phenyl)ethyl)pyrrolidine-2-carboxamide]",–

SMILES,IC50 (NCI-H929 cells),IC50 (NCI-H838 cells),SMARCA2 @ 100 nM (% SMARCA2 degradation) (SMARCA2 [1]),SMARCA4 percent degradation at 0.1 µM (SMARCA4),SMARCA2 Percent degradation @ 100 nM (SMARCA2 [2]),SMARCA4 Percent degradation @ 100 nM (SMARCA4),antiproliferative phenotype [3]
"Cc1ncsc1-c1ccc([C@H](C)NC(=O)[C@@H]2C[C@@H](O)CN2C(=O)[C@@H](NC(=O)CN2C3CCC2CN(c2cc(-c4ccccc4O)nnc2N)C3)C(C)(C)C)cc1 [Compound 61, (2S,4R)-1-((2S)-2-(2-(3-(3-amino-6-(2-hydroxyphenyl)pyridazin-4-yl)-3,8-diazabicyclo[3.2.1]octan-8-yl)acetamido)-3,3-dimethylbutanoyl)-4-hydroxy-N—((S)-1-(4-(4-methylthiazol-5-yl)phenyl)ethyl)pyrrolidine-2-carboxamide]",–,< 1 µM,35%,–,–,–,–
